Laboratory results: patent publication US20250214966A1, “Crystalline Salt Form Of A SHP2 Inhibitor” (Array BioPharma Inc., priority 2022, published 2025)
Structures can show the parent of a compound that is named as a salt.

How the values were obtained:
Type in all cases: physicochemical
[1] = Physical stability (PXRD) after storage at 70° C.
Method: Physical Stability (PXRD) (Table 12): Powder X-ray diffraction analysis was conducted using a Bruker AXS D8 Endeavor diffractometer equipped with a Cu radiation source. The divergence slit was set at 10 mm continuous illumination. Diffracted radiation was detected by a PSD-Lynx Eye detector, with the detector PSD opening set at 2.99 degrees. The X-ray tube voltage and amperage were set to 40 kV and 40 mA respectively. Data was collected in the Theta-Theta goniometer at the Cu wavelength from 3.0 to 40.0 degrees 2-Theta using a step size of 0.02 degrees and a step time of 0.3 second. The antiscatter screen was set to a fixed distance of 1.5 mm. Samples were rotated at 15/min during collection. Samples were prepared by placing them in a silicon low background sample holder and rotated during collection. Data were collected using Bruker DIFFRAC Plus software and analysis was performed by EVA diffract plus software. A Small divot sample holder was used.
Physical Stability (PXRD) (Table 13): The Rigaku MiniFlex 6G Diffractometer used is equipped with a Cu radiation source. Diffracted radiation was detected by a D/teX Ultra2 detector. The X-ray tube voltage and amperages were set to 40 kV and 15 mA respectively. Data was collected in the Miniflex goniometer at the Cu wavelength from 3.0 to 45.0° 20 using a step width of 0.02° and a step speed of 2.00°/minute. The incident slit box was set to 1.25° and the length limiting slit was set at 10 mm. The sample was rotated at 10 RPM during collection. The data was analyzed using Rigaku software SmartLab Studio II.
The sample was prepared by placement into a silicon low background sample holder (0.2 indent plate). The sample was confirmed to be level and packed prior to measurement. The sample was not ground (by mortar and pestle, or by any other means) prior to placement in the sample holder.

[2] = Photostability (2xICH), HPLC
From the text: Photostability (Table 12): Sample preparation: Control—about 1 g of sample was transferred into a weighting bottle and covered with a glass cover. The sample was wrapped in aluminum foil to protect from light and placed into the photostability chamber. Photostability sample: about 1 g of sample was transferred into a weighing bottle, then placed into the photostability chamber. Storage conditions: The photostability samples were stored according to ICH Photostability Option 2: A cool white fluorescent lamp designed to produce an output similar to that specified in ISO 10977 (1993), a near UV fkuorescent lamp having a spectral distribution from 320 nm to 400 nm with a maximum energy emission between 350 nm and 370 nm; a significant portion of UV should be in both bands of 320 to 360 nm and 360 to 400 nm. The photo stability and dark control samples were exposed to the light equipment providing photo intensity if 5000±500 Lx (near ultraviolet energy 0.84 W/m^2±10%) and irradiated for 12 days (samples exposed to light providing an overall illumination of not less than 1.2 million lux hours and an integrated near UV energy of not less than 200 watt hours/quare meter).
Photostability (HPLC) (Table 12): An Agilent 1100 HPLC was used with a Waters XSelect HSS T3 Column (100 angstrom, 4.6×150 mm, 5 μm). The column temperature was set to 20° C., the UV wavelength set to 254 nm, the injection volume was 10 μL, with a flow rate of 1.0 mL/min. 10 mM ammonium acetate adjusted to pH 4.8 was used as a mobile phase A, and acetonitrile was used as mobile phase B. The gradient method was set up to achieve 15% mobile phase B at 0 minutes, 95% mobile phase B at 17 minutes—held until 22 minutes, 15% mobile phase. […]
Physical (PXRD) (Table 13): Powder X-ray diffraction analysis was conducted using a Bruker AXS D8 Endeavor diffractometer equipped with a Cu radiation source. […] Diffracted radiation was detected by a PSD-Lynx Eye detector, with the detector PSD opening set at 2.99 degrees. […]

[3] = Thermal analysis TGA/DSC (Tables 12 and 13); conditions: 10° C./minute heating rate
Method: Thermogravimetric Analysis (“TGA”) (Table 12): Thermogravimetric analysis was conducted using a Discovery TGA (TA instruments) thermogravimetric analyzer. Samples of approximately 10 mg were weighed into aluminum pans and heated from ambient to 300° C. at 10° C./minute heating rate under nitrogen purge (10 mL/min for both sample chamber and balance).
Differential Scanning Calorimetry (“DSC”) (Table 12): DSC measurements were performed with Discovery DSC (TA instruments) equipped with a refrigerated cooling accessory. All the experiments were performed in standard/Tzero aluminum pans. The cell constant was determined using indium and temperature calibration was performed using indium and tin as standards. All the measurements were done under continuous dry nitrogen purge (50 mL/min). Approximately 1-5 mg of solid sample was weighed into a Tzero aluminum pan, sealed non-hermetically and heated from 0° C. to 250° C. at 10° C./min heating rate. The experimental data were analyzed using commercially available software (TA Universal Analysis 2000/Trios software, TA Instruments).
TGA/DSC (Table 13): A Simultaneous DSC/TGA instrument was used for the thermal analysis. Approximately 3.2 mg of the API was placed in an aluminum Tzero DSC pan was loaded into the instrument via autosampler. The sample was equilibrated to 35° C. in the instrument prior to analysis and was ramped to 400° C. at a ramp rate of 10° C./min. Dry nitrogen gas from the in-house supply was used.

[4] = 70° C./75% RH, first of two lines so headed
[5] = printed 70° C./75% RH, second of two lines so headed

SMILES	Physical Stability (70° C./75% RH) [1, 4]	Physical Stability (70° C./75% RH) [1, 5]	Photostability (2xICH), decrease in purity [2]	Decomposition Onset (° C.) [3]	Photostability (2xICH), photodeg RRT 1.16 [2]	Photostability (2xICH), photodeg RRT 1.62 [2]	Dehyradtion Onset (° C.) [3]
Nc1nccc(Sc2cnc(N3CCC4(CC3)Cc3ccccc3[C@H]4N)nn2)c1Cl [Example 3, (S)-1′-(6-((2-amino-3-chloropyridin-4-yl)thio)-1,2,4-triazin-3-yl)-1,3-dihydrospiro[indene-2,4′-piperidin]-1-amine Mono Succinate Salt Form 1]	No change	No change	0.53% decrease in purity	~180 °C			
Nc1nccc(Sc2cnc(N3CCC4(CC3)Cc3ccccc3[C@H]4N)nn2)c1Cl.Nc1nccc(Sc2cnc(N3CCC4(CC3)Cc3ccccc3[C@H]4N)nn2)c1Cl.O [Example 2, (S)-1′-(6-((2-amino-3-chloropyridin-4-yl)thio)-1,2,4-triazin-3-yl)-1,3-dihydrospiro[indene-2,4′-piperidin]-1-amine Free Base Hemihydrate (Form 1)]	No change	No change		~240 °C	~0.36%	~0.32%	~72 °C
